Experimental data taken from patent US5171573A, “4^G -alpha-D-glucopyranosyl rutin, and its preparation and uses” (Kabushiki Kaisha Hayashibara Seibutsu Kagaku Kenkyujo, priority 1989, dated 1992).
Converted amounts (≈) assume the structure as drawn.

Key:
[1] = Stability in aqueous solution; type: physicochemical; conditions: pH 3-7, aqueous solution
[2] = Solubility in solvents / water-solubility; type: physicochemical
Protocol: Soluble in methanol and ethanol. […] One ml water dissolves about 4.3 g of the present substance at 25° C. Only 1 g rutin (control) dissolves in 8 liters of water.

[3] = Physical properties (hygroscopicity, acidity in aqueous solution); type: physicochemical
[4] = Antioxidant activity on powdered peanut butter (peroxide value during standing at 35° C.)
Protocol: 4^G -Alpha-D-glucopyranosyl rutin was tested for antioxidant activity on powdered peanut butter which is used an example of fatty food substances highly susceptive to oxidation. […] The mixture was placed in a tray, sealed, solidified by allowing it to stand at 35° C. for 1 day, and prepared into a powder which was then placed in aluminum cups and allowed to stand in a 35° C. incubator without sealing. During the standing, the contents in the aluminum cups were periodically checked for their peroxide value. […] As the control, a group with no antioxidant was tested similarly as above.

7-week old dd mice = assay: Acute toxicity, oral, 7-week old dd mice
[5] = system: alpha-glucosidase derived from pig liver; assay: Hydrolysis using an alpha-glucosidase derived from pig liver; type: biochemical
Description: ii) Hydrolysis using an alpha-glucosidase derived from pig liver yields 1 mole of glucose per mole of rutin.

[6] = ambient temperature, prior art; cited from earlier work

C[C@@H]1O[C@@H](OC[C@H]2O[C@@H](Oc3c(-c4ccc(O)c(O)c4)oc4cc(O)cc(O)c4c3=O)[C@H](O)[C@@H](O)[C@@H]2O[C@H]2O[C@H](CO)[C@@H](O)[C@H](O)[C@H]2O)[C@H](O)[C@H](O)[C@H]1O [4^G -alpha-D-glucopyranosyl rutin]
Stability in aqueous solution [1]: Superiorily stable | Solubility in solvent: 0.1N hydrochloric acid [2]: Readily soluble | Solubility in solvent: 0.1N sodium hydroxide [2]: Readily soluble | Solubility in solvent: acetic acid [2]: Readily soluble | Solubility in solvent: chloroform [2]: Hardly soluble | Solubility in solvent: ethanol [2]: Soluble | Solubility in solvent: ethyl acetate [2]: Hardly soluble | Solubility in solvent: methanol [2]: Soluble | Solubility in solvent: water [2]: Readily soluble | solubility improved as compared to that of rutin [2]: about thirty thousand | solubility ([2]; water): ~4300 mg/mL (≈ 5570 mM) | acidity in aqueous solution ([3]; aqueous solution): Neutral or slightly acidic | hygroscopicity / deliquescence ([3]; powder, purity about 99.8%): Non-hygroscopic and non-deliquescent | peroxide value ([4]; 0 days): 1.78 meq/kg | peroxide value ([4]; 8 days): 5.53 meq/kg | peroxide value ([4]; 27 days): 14.6 meq/kg | peroxide value ([4]; 42 days): 23.4 meq/kg | peroxide value ([4]; 55 days): 32.5 meq/kg | acute toxicity, in words (7-week old dd mice; 7-week old dd mice, powder of Example A-3): extremely low in toxicity | acute toxicity: dose up to which no mouse died (7-week old dd mice; 7-week old dd mice, powder of Example A-3, higher dose was difficult): > 5 g | acute toxicity, in words (7-week old dd mice; dd mice, high-purity powder of Example A-4, same result as Example A-3 powder): extremely low | glucose yielded on enzymatic hydrolysis [5]: 1 mole of glucose per mole of rutin

C[C@@H]1O[C@@H](OC[C@H]2O[C@@H](Oc3c(-c4ccc(O)c(O)c4)oc4cc(O)cc(O)c4c3=O)[C@H](O)[C@@H](O)[C@@H]2O)[C@H](O)[C@H](O)[C@H]1O [rutin]
Solubility in 8 liters of water ([2]; 8 liters of water (control)): 1 g | water-solubility [6]: about 0.01 w/v %
